Assays:
Type in all cases: functional
Mus musculus = species: Mus musculus; test: animal or person
Description: Analgesic activity in sc dosed mouse assessed as inhibition of acetic acid-induced writhing after 15 to 30 mins

Rattus norvegicus [1] = test: Analgesic activity in sc dosed rat assessed as dose required for 2 times increase in reaction time after 15 mins by tail jerk test relative to control
Rattus norvegicus [2] = test: Analgesic activity in sc dosed rat assessed as dose required for 2 times increase in reaction time after 30 mins by tail jerk test relative to control
[3] = Mus musculus, sc, read-out: ED50

SMILES	ED50 (Mus musculus; [3]) [mg/kg]	also measured
CC(=O)Oc1ccc(C(C2COCOC2)N(C)C)cc1.Cl (stereo not given)	11	ED (Rattus norvegicus [1]): 7.3 mg/kg
CN1CC[C@]23c4c5ccc(O)c4O[C@H]2[C@@H](O)C=C[C@H]3[C@H]1C5.CN1CC[C@]23c4c5ccc(O)c4O[C@H]2[C@@H](O)C=C[C@H]3[C@H]1C5.O=S(=O)(O)O	0.97	
COc1ccc(C(C2COCOC2)N(C)C)cc1.Cl (stereo not given)	> 50	
CN(C)C(c1ccc(O)cc1)C1COCOC1.Cl (stereo not given)	13	ED (Rattus norvegicus [1]): 12 mg/kg
CC1OCC(C(c2ccccc2)N(C)C)CO1 (racemic)	3.9	ED (Rattus norvegicus [1]): 6.3 mg/kg
CN(C)C(c1cccnc1)C1COCOC1.Cl (stereo in doubt; (-)-4o)		ED50 (Mus musculus): 3.6 mg/kg; ED (Rattus norvegicus [1]): 5.7 mg/kg
Cc1cccc(C(C2COCOC2)N(C)C)c1.O=C(O)/C=C\C(=O)O (stereo not given)	> 50	
CN(C)C(c1ccccc1)C1COCOC1.Cl (racemic)		ED50 (Mus musculus): 14 mg/kg; ED (Rattus norvegicus [1]): 4 mg/kg
CN(C)C(c1ccc(Cl)cc1)C1COCOC1.Cl (stereo not given)	32	
CC(C)C1OCC(C(c2ccccc2)N(C)C)CO1.Cl (racemic)	> 50	
CCC1(c2ccccc2)OCC(C(c2ccccc2)N(C)C)CO1.O=C(O)/C=C\C(=O)O (racemic)	> 50	
Cl.c1ccc(C(C2COCOC2)N2CCCC2)cc1 (stereo not given)	> 50	
CN(C)C(c1cccc(O)c1)C1COCOC1.Cl (stereo not given)	> 50	
CN(C)C(c1ccccc1)C1(C)COCOC1.Cl (stereo not given)	> 50	
COc1ccc2c3c1O[C@H]1[C@@H](O)C=C[C@H]4[C@@H](C2)N(C)CC[C@@]341.O=S(=O)(O)O	6.7	ED (Rattus norvegicus [2]): 4.2 mg/kg
Cl.Clc1ccc(C(C2COCOC2)N2CCCCC2)cc1 (stereo not given)	33	
CN(C)C(c1cccnc1)C1COCOC1.Cl (racemic)		ED50 (Mus musculus): 6.1 mg/kg; ED (Rattus norvegicus [1]): 9.6 mg/kg
CNC(c1ccccc1)C1COCOC1.Cl (stereo not given)	21	
CN(C)C(c1ccccc1Cl)C1COCOC1.Cl (stereo not given)	48	
Cl.c1ccc(C(C2COCOC2)N2CCOCC2)cc1 (stereo not given)	> 50	
CN(C)C(c1cccc(Cl)c1)C1COCOC1.O=C(O)/C=C\C(=O)O (stereo not given)	> 50	

SMILES	ED50 (Mus musculus; [3]) [mg/kg]	also measured
CN(C)C(c1ccc(Cl)cc1Cl)C1COCOC1.Cl (stereo not given)	> 50	
Cl.NC(c1ccccc1)C1COCOC1 (stereo not given)	> 50	
Cc1ccc(C(C2COC(C)OC2)N(C)C)cc1.Cl (racemic)	2.9	ED (Rattus norvegicus [1]): 7.9 mg/kg
CN(C)C(c1cccc(OCc2ccccc2)c1)C1COCOC1.Cl (stereo not given)	> 50	
C=CCN(C)C(c1ccccc1)C1COCOC1.Cl (stereo not given)	> 50	
CN(C)C(c1ccccc1)C1COCOC1.Cl (stereo in doubt; (-)-4a)		ED50 (Mus musculus): 6.2 mg/kg; ED (Rattus norvegicus [1]): 2.4 mg/kg
CN(C)C(c1ccccc1)C1COC(C2CCCC2)OC1 (racemic)	45	
CN(C)C(c1ccccc1)C1COCOC1.Cl (stereo in doubt; (+)-4a)		ED50 (Mus musculus): >50 mg/kg; ED (Rattus norvegicus [1]): 69 mg/kg
CCC1OCC(C(c2ccccc2)N(C)C)CO1 (racemic)	19	
CN(C)C(c1ccncc1)C1COCOC1.O=C(O)/C=C\C(=O)O (stereo not given)	> 50	
CCOC(=O)C1(c2ccccc2)CCN(C)CC1.Cl [MEPERIDINE HYDROCHLORIDE]	2.9	ED (Rattus norvegicus [1]): 1.9 mg/kg
CN(C)C(c1ccc(OCc2ccccc2)cc1)C1COCOC1.Cl (stereo not given)	> 50	
CN(C)C(c1ccccc1)C1COC(C2CCCCC2)OC1.Cl (racemic)	> 50	
CN(C)C(c1ccc(F)cc1)C1COCOC1.Cl (stereo not given)	30	
Cc1ccccc1C(C1COCOC1)N(C)C.Cl (stereo not given)	39	
Cc1ccc(C(C2COCOC2)N(C)C)cc1.O=C(O)/C=C\C(=O)O (stereo not given)	20	ED (Rattus norvegicus [1]): 7.9 mg/kg
CC1OCOCC1C(c1ccccc1)N(C)C.Cl (stereo not given)	32	
CN(C)C(c1ccccn1)C1COCOC1.O=C(O)/C=C\C(=O)O (stereo not given)	> 50	
CN(C)C(c1cccnc1)C1COCOC1.Cl (stereo in doubt; (+)-4o)		ED50 (Mus musculus): >50 mg/kg; ED (Rattus norvegicus [1]): >80 mg/kg
COc1cccc(C(C2COCOC2)N(C)C)c1.O=C(O)/C=C\C(=O)O (stereo not given)	> 50	
CCN(CC)C(c1ccccc1)C1COCOC1.[O-][Cl+3]([O-])([O-])O (stereo not given)	> 50	

— ChEMBL document CHEMBL3244099, “Various 5-substituted and 2,5-disubstituted 1,3-dioxanes, a new class of analgesic agents” (1977)
